Measured values taken from US4959353A, “Promotion of corneal stroma wound healing with human epidermal growth factor prepared from recombinant DNA” (University of Louisville Foundation, priority 1987, dated 1990).

Assays:
[1] = system: interscapular incision; assay: Tensile strength of incisions treated with a single dose of EGF-saline; format: in vivo, rats; conditions: after 10 days; single dose in saline
Description: Adult male Sprague Dawley rats weighing 230-250 g were anesthetized and a single interscapular incision 5 cm long penetrating the panniculus carnosus was created in the dorsal midline. Equal amounts of hEGF (10 μg) formulated in one of the four formulations were placed in the base of individual incision tracts, and then sutured. At daily intervals, rats were sacrificed by carbon dioxide inhalation and incisions with 3 mm of surrounding nonwounded skin were excised to the underlying muscle. Total amounts of hEGF present in incision areas were calculated by measuring residual ^125 I-hEGF present in samples using a Beckman 4000 gamma scintillation counter, and were expressed as percentages of original hEGF applied to incisions. At each time point, the average amount of hEGF retained in the incision for each formulation was calculated from the values from three rats. From each incision, three test strips approximately 5 mm wide were cut perpendicular to the original incision, one from the middle and two from each end. Measurements of incision strength were conducted using a Unite-O-Matic FM-20 tensiometer instrument. For each formulation, the mean tensile strength was calculated from the mean value of all incision measurements in the group. […]

[2] = system: interscapular incision; assay: Tensile strength of incisions treated with repeated doses of EGF-saline; format: in vivo, rats
Description: Interscapular incisions were created as above on the backs of 22 rats and a perforated catheter was placed in the base of the incision and brought out through a separate stab incision at the base of the neck. Incisions of half the rats were treated three times a day for five days by rapidly injecting 200 μl of PBS containing 50 μg of hEGF, while the control rats received injections of PBS. Seven and 14 days after surgery, rats were sacrificed by carbon dioxide asphixiation, incisions and surrounding tissue were removed as above. Three strips were taken from tensile strength measurement from each incision.
An interscapular incision was made on the back of each rat and a perforated catheter was placed in the base of the incision and brought out through a separate stab wound and the incision was sutured. Incisions were treated three times a day for five days by injecting 200 μl of saline alone or containing 50 μg EGF. After seven and fourteen days, rats were sacrificed and triplicate tensile strength measurements were determined for each rat. Values are mean and standard deviation and n is the number of tensile strength measurements.

[3] = system: capillary growth in rabbit cornea; assay: Rabbit cornea angiogenesis assay with hEGF EVA pellets; format: in vivo, rabbits; design: key to Angiogenic Response: 4+: profuse capillary growth; 3+: extensive capillary growth; 2+: moderate capillary growth; 1+: very little capillary growth; 0: no capillary growth
Description: hEGF was dilated in sterile PBS to concentrations of 500, 100, 20, 4 and 0.8 μg/ml and lyophilized. Ethylene-vinyl acetate (EVA) copolymer beads were mixed with methylene chloride to produce a 10% w/v casting solution. Approximately 0.1 ml of casting solution was added to the lyophilized hEGF and mixed. […]
The pellets were implanted into intrasomal corneal pockets located 1.5 mm from the limbus in the eyes of pigmented adult rabbits. […]

[4] = system: open wounds; conditions: topical application; mice; cited from earlier work
[5] = system: blister wounds; conditions: mEGF in saline solution once daily until healed; human subjects; cited from earlier work

What does the source list for “hEGF: human epidermal growth factor polypeptide expressed from plasmid pYαEGF-23 in yeast strain AB103 and purified”?
tensile strength vs PBS-treated or simply sutured incisions [1]: not significantly stronger; average increase in strength over saline treated incisions ([2]; 7 days after surgery): 35%; microscopic appearance of incision tract ([2]; 7 days after surgery): very narrow with closely opposed edges; tensile strength vs saline-treated incisions ([2]; fourteen days after surgery): not different; Angiogenic Response ([3]; 0.04 mg/pellet (so in the source), EVA pellet): 1+; Angiogenic Response ([3]; 0.18 mg/pellet (so in the source), EVA pellet): 1+; Angiogenic Response ([3]; 1.1 mg/pellet (so in the source), EVA pellet): 2+; Angiogenic Response ([3]; 6.2 mg/pellet (so in the source), EVA pellet): 3+; Angiogenic Response ([3]; 25 mg/pellet (so in the source), EVA pellet in rabbit corneal pocket): 4+; angiogenesis in rabbit cornea assay ([3]; sustained release from EVA pellets): induced angiogenesis

Which “healing of open wounds” value [4] does the source give for “mEGF: epidermal growth factor obtained from mouse salivary glands (NSYPGCPSSYDGYCLNGGVCMHIESLDSYTCNCVIGYSGDRCQTRDLRWWELR; not fully specified; Epidermal growth factor; UniProt P01132 977-1029, looked up)” here?
Its value is “promote healing in various degrees”.

And the “acceleration in the growth of the epidermal layer” value [5]?
Its value is “No acceleration”.
